This is an account of results in the supplement of paper PMC11061612.

Common to all, as to assay: combination Emax (second highest fraction inhibited in the dose matrix, 72 h); higher = more inhibition; extreme values may be limits of the assay
The test system of test [1] is CAL-39 (Other Solid Carcinomas). The gist of the method:
(§1)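 Bliss excess equals the observed combination effect minus the expected value EA + EB − EA·EB, where EA and EB are the effects of each agent alone. Combination Emax is the second-highest inhibition within the matrix. Inhibition was scaled from CellTiter-Glo 2.0 luminescence, with 0 set by vehicle wells and 1 by blank wells, after 72 hours of two-drug dosing of cells plated in 1536-well plates.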

The test system of test [2] is D-283MED (Other Solid Carcinomas). The gist of the method: as §1
Test [3] has as its system EFM-192A (Breast Carcinoma). The gist of the method:
as §1

For test [4], the system named is EKVX (Non-Small Cell Lung Carcinoma). In a few lines: as §1
Test [5] relates to H4 (Low Grade Glioma). The gist of the method: as §1
Test [6] deals with HCC-827 (Lung Adenocarcinoma). In a few lines: as §1
Test [7] has as its system HCT-116 (Colorectal Carcinoma). In a few lines: as §1
For test [8], the system named is HuO9 (Osteosarcoma). In a few lines:
as §1

Test [9] concerns MCF7 (Breast Carcinoma). The gist of the method:
as §1

In test [10] the test system is MSTO-211H (Mesothelioma). In a few lines: as §1
Test [11] deals with NCI-H1688 (Small Cell Lung Carcinoma). In a few lines:
as §1

Test [12] relates to NOMO-1 (Acute Myeloid Leukemia). In a few lines: as §1
Test [13] has as its system RCC10RGB (Kidney Carcinoma). In a few lines: as §1
In test [14] the test system is SK-LMS-1 (Other Solid Carcinomas). In a few lines:
as §1

For test [15], the system named is SK-MEL-1 (Melanoma). The gist of the method: as §1
For test [16], the system named is SKN-3 (Head and Neck Carcinoma). In a few lines: as §1
Test [17] concerns SLVL (B-Cell Non-Hodgkin's Lymphoma). In a few lines:
as §1

In test [18] the test system is SW48 (Colorectal Carcinoma). In a few lines:
as §1

Test [19] relates to SW948 (Colorectal Carcinoma). The gist of the method:
as §1

Test [20] has as its system Saos-2 (Osteosarcoma). In a few lines:
as §1

In the case of `Cc1c2c(nn1C)CSCc1cc(n(C)n1)CSc1cc(c3ccccc3c1)OCCCc1c(C(=O)O)n(C)c3c-2c(Cl)ccc13` [AZD5991] + Cn1cnc2c(F)c(Nc3ccc(Br)cc3Cl)c(C(=O)NOCCO)cc21 [Selumetinib] (first compound max 1 µM, 7x7, partner max 3 µM), the “combination Emax” value in [1] was found to be 0.874; in test [2], 0.237; in test [3], 0.511; in [4] it was 0.348; in test [5] it was 0.456; in [6] it was 0.201. In addition, the “combination Emax” value in test [7] was 0.523; in test [8], 1; in test [9] it was 0.559; in [10], 0.264; in [11] it was 0.411; in test [12], 1. Also, the “combination Emax” value came out at 0.497 in [13]; 0.22 in test [14]; 0.912 in test [15]; 0.387 in test [16]; 0.47 in test [17]; 0.565 in [18]. Moreover, the “combination Emax” value in test [19] turned out to be 0.69; in test [20], 0.247.
Regarding `Cc1c2c(nn1C)CSCc1cc(n(C)n1)CSc1cc(c3ccccc3c1)OCCCc1c(C(=O)O)n(C)c3c-2c(Cl)ccc13` [AZD5991] + Cc1cc2ncnn2cc1Nc1ncc2c(n1)n(C1CCOCC1)c(=O)n2C [AZD7648] (first compound max 1 µM, 7x7, partner max 10 µM), the “combination Emax” value in test [1] was found to be 0.58; in test [2] it was 0.435; in test [3], 0.692; in test [4], 0.303; in test [5], 0.378; in test [6] it was 0.288. The “combination Emax” value worked out at 0.311 in test [7]; 1 in [8]; 0.665 in [9]; 0.194 in test [10]; 0.297 in test [11]; 0.865 in [12]. In addition, the “combination Emax” value worked out at 0.342 in [13]; 0.344 in test [14]; 0.303 in [15]; 0.179 in [16]; 0.487 in test [17]; 0.33 in test [18]. Moreover, the “combination Emax” value was 0.436 in test [19] and 0.285 in [20].
For the molecule `Cc1c2c(nn1C)CSCc1cc(n(C)n1)CSc1cc(c3ccccc3c1)OCCCc1c(C(=O)O)n(C)c3c-2c(Cl)ccc13` [AZD5991] + C[C@@H](Nc1cc(F)cc(F)c1)c1cc(C(=O)N(C)C)cc2c(=O)cc(N3CCOCC3)oc12 [AZD8186] (first compound max 1 µM, 7x7, partner max 3 µM), the “combination Emax” value in test [1] turned out to be 0.704; in [2], 0.342; in [3], 0.703; in test [4], 0.29; in test [5], 0.656; in test [6], 0.288. The “combination Emax” value in [7] turned out to be 0.248; in test [8] it was 1; in test [9], 0.71; in test [10] it was 0.313; in test [11] it was 0.339; in test [12], 0.905. Moreover, the “combination Emax” value in test [13] stood at 0.557; in [14], 0.453; in [15] it was 0.153; in [16], 0.31; in [17] it was 0.47; in test [18] it was 0.387. Moreover, the “combination Emax” value turned out to be 0.345 in test [19] and 0.491 in [20].
As for `Cc1cc2ncnn2cc1Nc1ncc2c(n1)n(C1CCOCC1)c(=O)n2C` [AZD7648] + C=CCn1c(=O)c2cnc(Nc3ccc(N4CCN(C)CC4)cc3)nc2n1-c1cccc(C(C)(C)O)n1 [AZD1775] (first compound max 10 µM, partner max 1 µM), the “combination Emax” value worked out at 0.462 in test [1]; 0.957 in [2]; 0.455 in test [3]; 0.306 in test [4]; 0.796 in [5]; 0.497 in [6]. Besides, the “combination Emax” value is 0.633 in [7]; 0.724 in [8]; 0.552 in test [9]; 0.612 in test [10]; 0.586 in test [11]; 0.961 in test [12]. For the same molecule, the “combination Emax” value in test [13] was determined as 0.552; in [14] it was 0.572; in [15], 0.399; in test [16] it was 0.283; in test [17], 0.916; in test [18], 0.45. In addition, the results for the “combination Emax” value in [19] and in test [20] were 0.83 and 0.582, respectively.
Take `COc1cccc(OCCCN)c1-c1cc(Nc2cnc(C#N)cn2)n[nH]1` [Prexasertib] + Cc1cc2ncnn2cc1Nc1ncc2c(n1)n(C1CCOCC1)c(=O)n2C [AZD7648] (first compound max 1 µM, 7x7, partner max 10 µM): the “combination Emax” value worked out at 0.328 in [1]; 0.995 in [2]; 0.284 in test [3]; 0.276 in test [4]; 0.874 in test [5]; 0.566 in [6]. For the same molecule, the “combination Emax” value in test [7] is 0.565; in test [8] it was 0.778; in test [9], 0.682; in test [10] it was 0.894; in test [11], 0.557; in [12], 1. Moreover, the “combination Emax” value in test [13] amounted to 0.442; in test [14] it was 0.637; in test [15], 0.653; in [16], 0.606; in test [17] it was 0.962; in test [18], 0.728. The “combination Emax” value in [19] came to 0.812; in test [20] it was 0.662.
With `COc1cccc(OCCCN)c1-c1cc(Nc2cnc(C#N)cn2)n[nH]1` [Prexasertib] + C=CCn1c(=O)c2cnc(Nc3ccc(N4CCN(C)CC4)cc3)nc2n1-c1cccc(C(C)(C)O)n1 [AZD1775] (first compound max 1 µM, partner max 1 µM), the “combination Emax” value in test [1] amounted to 0.694; in test [2] it was 1; in test [3], 0.416; in [4], 0.287; in [5], 0.979; in [6], 0.603. In addition, the “combination Emax” value stood at 0.921 in [7]; 0.954 in test [8]; 0.658 in test [9]; 0.875 in [10]; 0.838 in [11]; 1 in [12]. Also, the “combination Emax” value in test [13] was determined as 0.6; in test [14], 0.711; in test [15], 0.605; in test [16], 0.771; in test [17], 0.951; in [18] it was 0.834. Besides, the “combination Emax” value came to 0.896 in [19] and 0.935 in test [20].
